Data from ChEMBL document CHEMBL1201862, “PubChem BioAssay data set” (2004).
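Step 1: Grow cells in 96-well plates. Step 2: Expose to compound for 48 hours at 5 concentrations. Step 3: Interpolate endpoints linearly; if unreached, use highest concentration. Here, GI50 denotes the concentration required for 50% inhibition of growth.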 Calls of active or inactive are those of the source. No stated cut-off is given here; in the data, active = GI50 up to about 1.1 µM and inactive = higher.

Key:
Assay in all cases: NCI anticancer screen, dose series, 48 h
UACC-62 = tested on: UACC-62
HOP-92 = tested on: HOP-92
MCF7 = tested on: MCF7
SF-539 = tested on: SF-539
A549 = tested on: A549
786-0 = tested on: 786-0
Hs-578T = tested on: Hs-578T
Malme-3M = tested on: Malme-3M
TK-10 = tested on: TK-10
MDA-MB-231 = tested on: MDA-MB-231
RXF 393 = tested on: RXF 393
SK-MEL-28 = tested on: SK-MEL-28
NCI-H23 = tested on: NCI-H23
M14 = tested on: M14
SN12C = tested on: SN12C
HOP-62 = tested on: HOP-62
LOX IMVI = tested on: LOX IMVI
KM12 = tested on: KM12
COLO 205 = tested on: COLO 205
UO-31 = tested on: UO-31
SW-620 = tested on: SW-620
SNB-19 = tested on: SNB-19
HCT-116 = tested on: HCT-116
HL-60 = tested on: HL-60
HT-29 = tested on: HT-29
NCI/ADR-RES = tested on: NCI/ADR-RES
U-251 = tested on: U-251
SR = tested on: SR
OVCAR-8 = tested on: OVCAR-8
BT-549 = tested on: BT-549
CAKI-1 = tested on: CAKI-1
SF-268 = tested on: SF-268
SF-295 = tested on: SF-295
MDA-MB-435 = tested on: MDA-MB-435
IGROV-1 = tested on: IGROV-1
OVCAR-3 = tested on: OVCAR-3
A498 = tested on: A498
HCC 2998 = tested on: HCC 2998
MDA-N = tested on: MDA-N
OVCAR-5 = tested on: OVCAR-5
K562 = tested on: K562
ACHN = tested on: ACHN
OVCAR-4 = tested on: OVCAR-4
SNB-75 = tested on: SNB-75
SK-MEL-5 = tested on: SK-MEL-5
MOLT-4 = tested on: MOLT-4
T47D = tested on: T47D
NCI-H522 = tested on: NCI-H522
NCI-H226 = tested on: NCI-H226
CCRF-CEM = tested on: CCRF-CEM
UACC-257 = tested on: UACC-257
HCT-15 = tested on: HCT-15
PC-3 = tested on: PC-3
DU-145 = tested on: DU-145
SK-OV-3 = tested on: SK-OV-3
EKVX = tested on: EKVX
NCI-H460 = tested on: NCI-H460
SK-MEL-2 = tested on: SK-MEL-2
RPMI-8226 = tested on: RPMI-8226

N#Cc1c(NC(=S)NCc2ccccc2)sc2c1CCN(N1CCc3c(sc(NC(=S)NCc4ccccc4)c3C#N)C1)C2
GI50 (UACC-62): > 100 µM (inactive)
GI50 (HOP-92): > 100 µM (inactive)
GI50 (MCF7): > 100 µM (inactive)
GI50 (SF-539): > 100 µM (inactive)
GI50 (A549): > 100 µM (inactive)
GI50 (786-0): > 100 µM (inactive)
GI50 (Hs-578T): > 100 µM (inactive)
GI50 (Malme-3M): > 100 µM (inactive)
GI50 (TK-10): > 100 µM (inactive)
GI50 (MDA-MB-231): > 100 µM (inactive)
GI50 (RXF 393): > 100 µM (inactive)
GI50 (SK-MEL-28): > 100 µM (inactive)
GI50 (NCI-H23): > 100 µM (inactive)
GI50 (M14): > 100 µM (inactive)
GI50 (SN12C): > 100 µM (inactive)
GI50 (HOP-62): > 100 µM (inactive)
GI50 (LOX IMVI): > 100 µM (inactive)
GI50 (KM12): > 100 µM (inactive)
GI50 (COLO 205): > 100 µM (inactive)
GI50 (UO-31): > 100 µM (inactive)
GI50 (SW-620): > 100 µM (inactive)
GI50 (SNB-19): > 100 µM (inactive)
GI50 (HCT-116): > 100 µM (inactive)
GI50 (HL-60): > 100 µM (inactive)
GI50 (HT-29): > 100 µM (inactive)
GI50 (NCI/ADR-RES): > 100 µM (inactive)
GI50 (U-251): > 100 µM (inactive)
GI50 (SR): > 100 µM (inactive)
GI50 (OVCAR-8): > 100 µM (inactive)
GI50 (BT-549): > 100 µM (inactive)
GI50 (CAKI-1): > 100 µM (inactive)
GI50 (SF-268): > 100 µM (inactive)
GI50 (SF-295): > 100 µM (inactive)
GI50 (MDA-MB-435): > 100 µM (inactive)
GI50 (IGROV-1): > 100 µM (inactive)
GI50 (OVCAR-3): > 100 µM (inactive)
GI50 (A498): > 100 µM (inactive)
GI50 (HCC 2998): > 100 µM (inactive)
GI50 (MDA-N): > 100 µM (inactive)
GI50 (OVCAR-5): > 100 µM (inactive)
GI50 (K562): > 100 µM (inactive)
GI50 (ACHN): > 100 µM (inactive)
GI50 (OVCAR-4): > 100 µM (inactive)
GI50 (SNB-75): > 100 µM (inactive)
GI50 (SK-MEL-5): > 100 µM (inactive)
GI50 (MOLT-4): > 100 µM (inactive)
GI50 (T47D): > 100 µM (inactive)
GI50 (NCI-H522): > 100 µM (inactive)
GI50 (NCI-H226): > 100 µM (inactive)
GI50 (CCRF-CEM): > 100 µM (inactive)
GI50 (UACC-257): > 100 µM (inactive)
GI50 (HCT-15): > 100 µM
GI50 (PC-3): > 100 µM (inactive)
GI50 (DU-145): > 100 µM (inactive)
GI50 (SK-OV-3): > 100 µM (inactive)
GI50 (EKVX): > 100 µM (inactive)
GI50 (NCI-H460): > 100 µM (inactive)
GI50 (SK-MEL-2): > 100 µM (inactive)

COc1cc2oc(-c3ccc(O)cc3)cc(=O)c2c(OC)c1OC
GI50 (UACC-62): > 100 µM (inactive)
GI50 (HOP-92): > 100 µM (inactive)
GI50 (MCF7): > 100 µM (inactive)
GI50 (SF-539): > 100 µM (inactive)
GI50 (A549): > 100 µM (inactive)
GI50 (786-0): > 100 µM (inactive)
GI50 (Hs-578T): > 100 µM (inactive)
GI50 (Malme-3M): > 100 µM (inactive)
GI50 (TK-10): > 100 µM (inactive)
GI50 (MDA-MB-231): > 100 µM (inactive)
GI50 (RXF 393): > 100 µM (inactive)
GI50 (SK-MEL-28): > 100 µM (inactive)
GI50 (NCI-H23): > 100 µM (inactive)
GI50 (M14): > 100 µM (inactive)
GI50 (SN12C): > 100 µM (inactive)
GI50 (HOP-62): > 100 µM (inactive)
GI50 (LOX IMVI): > 100 µM (inactive)
GI50 (KM12): > 100 µM (inactive)
GI50 (COLO 205): > 100 µM (inactive)
GI50 (UO-31): > 100 µM (inactive)
GI50 (SW-620): > 100 µM (inactive)
GI50 (SNB-19): > 100 µM (inactive)
GI50 (HCT-116): > 100 µM (inactive)
GI50 (HL-60): > 100 µM (inactive)
GI50 (HT-29): > 100 µM (inactive)
GI50 (NCI/ADR-RES): > 100 µM (inactive)
GI50 (U-251): > 100 µM (inactive)
GI50 (SR): > 100 µM (inactive)
GI50 (OVCAR-8): > 100 µM (inactive)
GI50 (BT-549): > 100 µM (inactive)
GI50 (CAKI-1): > 100 µM (inactive)
GI50 (SF-268): > 100 µM (inactive)
GI50 (SF-295): > 100 µM (inactive)
GI50 (MDA-MB-435): > 100 µM (inactive)
GI50 (IGROV-1): > 100 µM (inactive)
GI50 (OVCAR-3): > 100 µM (inactive)
GI50 (A498): > 100 µM (inactive)
GI50 (HCC 2998): > 100 µM (inactive)
GI50 (MDA-N): > 100 µM (inactive)
GI50 (OVCAR-5): > 100 µM (inactive)
GI50 (K562): > 100 µM (inactive)
GI50 (ACHN): > 100 µM (inactive)
GI50 (RPMI-8226): > 100 µM (inactive)
GI50 (OVCAR-4): > 100 µM (inactive)
GI50 (SNB-75): 18.4 µM (inactive)
GI50 (SK-MEL-5): > 100 µM (inactive)
GI50 (MOLT-4): > 100 µM (inactive)
GI50 (T47D): 63.5 µM (inactive)
GI50 (NCI-H522): > 100 µM (inactive)
GI50 (NCI-H226): > 100 µM (inactive)
GI50 (CCRF-CEM): > 100 µM (inactive)
GI50 (UACC-257): > 100 µM (inactive)
GI50 (HCT-15): > 100 µM
GI50 (PC-3): > 100 µM (inactive)
GI50 (DU-145): > 100 µM (inactive)
GI50 (EKVX): > 100 µM (inactive)
GI50 (NCI-H460): > 100 µM (inactive)
